Measured values published in patent US20260176320A1, “MODULATORS OF G-PROTEIN COUPLED RECEPTORS” (priority 2018, published 2026).
Like-named read-outs stand apart in the source and are kept apart here.

Experiments:
mice = assay: Glucose tolerance test (GTT); assay type: in vivo, mouse; settings: 24 h GTT, s.c., dose range 2-5 nmol/kg, percent of vehicle
Method: Freestyle Lite glucometer and strips; compounds to be tested; sterilized glucose solution 200 mg/ml.
Compounds were diluted in PBS from the 1 mM DMSO stocks right before injection. Body weight and baseline blood glucose level for each mouse were measured. Tails were snipped using sterile scissors; blood from tails was used to measure glucose. For 0.25 h GTT, mice were fasted for 5-6 h and injected with compound subcutaneously 15 mins before glucose injection. For 4 h GTT, mice were fasted O/N for 16 h and injected with compound subcutaneously 4 h before glucose injection. For 16 h GTT, mice were injected with compound subcutaneously 16 h before glucose injection; food was removed at the same time. For 24 h GTT, mice were injected with compound subcutaneously 24 h before glucose injection; food was removed 5-6 h before glucose injection. 20% glucose in water was prepared; the solution was sterilized by 0.2 μm-filtration. An intraperitoneal injection of glucose (2 g/kg) was given to the mouse. Continued to take blood samples from the tail. Blood glucose was measured at 10, 20, 30, 40, 60, 90, and 120 minutes after glucose injection. Between each of these time points, the mouse was returned to its cage and monitored (at least 6 replicate mice were used for each time-point). The average glucose measurements were plotted as a function of time and the area under the curve (AUC) was determined.

GLP-1R [1] = molecular target: T1, GLP-1R (Homo sapiens, UniProt P43220); assay: PathHunter β-arrestin assay; assay type: cell-based
T1 sequence (P43220 24-463): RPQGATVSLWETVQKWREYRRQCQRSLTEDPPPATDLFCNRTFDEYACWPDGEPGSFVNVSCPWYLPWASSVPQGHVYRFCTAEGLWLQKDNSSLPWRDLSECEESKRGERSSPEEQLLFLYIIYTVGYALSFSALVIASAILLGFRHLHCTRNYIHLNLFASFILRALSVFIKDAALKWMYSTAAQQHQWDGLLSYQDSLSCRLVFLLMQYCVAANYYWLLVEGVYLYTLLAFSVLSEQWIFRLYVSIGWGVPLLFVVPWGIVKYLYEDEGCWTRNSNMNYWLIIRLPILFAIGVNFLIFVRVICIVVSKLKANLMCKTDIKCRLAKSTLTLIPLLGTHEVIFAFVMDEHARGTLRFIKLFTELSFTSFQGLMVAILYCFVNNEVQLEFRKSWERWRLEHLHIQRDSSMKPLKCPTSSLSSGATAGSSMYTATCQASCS
In short: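 Following a 90 min agonist exposure at 37 °C in 0.2% BSA medium, β-arrestin coupling was detected by chemiluminescence after 3 h at room temperature.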

GIP-R = molecular target: T2, GIP-R (Homo sapiens, UniProt P48546); assay: HitHunter cAMP assay (GIP-R); assay type: cell-based; settings: cAMP; for Emax: read-out: (Emax) GIP-R
T2 sequence (P48546 22-466): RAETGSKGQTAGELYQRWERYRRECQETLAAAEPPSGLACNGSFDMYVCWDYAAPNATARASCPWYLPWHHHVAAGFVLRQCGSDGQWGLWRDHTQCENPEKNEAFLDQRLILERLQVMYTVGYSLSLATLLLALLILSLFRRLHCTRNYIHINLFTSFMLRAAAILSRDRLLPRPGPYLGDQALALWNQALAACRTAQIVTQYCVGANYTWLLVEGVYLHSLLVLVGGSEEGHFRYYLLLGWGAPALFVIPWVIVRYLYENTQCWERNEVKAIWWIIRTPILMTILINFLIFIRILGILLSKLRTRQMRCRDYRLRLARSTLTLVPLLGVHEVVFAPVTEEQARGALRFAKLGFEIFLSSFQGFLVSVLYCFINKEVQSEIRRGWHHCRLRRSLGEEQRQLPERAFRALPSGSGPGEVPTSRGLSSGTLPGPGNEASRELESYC
In short: (§1)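 Duplicate 22-point, 2-fold agonist titrations applied to receptor-expressing suspension cells in IBMX-containing HBSS; 30 min RT stimulation. Read: luminescent cAMP immunocompetition after O/N dark incubation.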

GLP-1R [2] = molecular target: T1, GLP-1R; assay: HitHunter cAMP assay (GLP-1R); assay type: cell-based; settings: cAMP; for Emax: read-out: (Emax) GLP-1R
In short: as §1

[3] = PathHunter β-arrestin assay, read-out: β-arrestin activity EC50
[4] = Table 3, read-out: EC50 GIP-R/nM
[5] = Table 3A, read-out: EC50 GIP-R/nM
[6] = Table 3, read-out: EC50 GLP-1R/nM
[7] = Table 3A, read-out: EC50 GLP-1R/nM

Row | SMILES | AUC score (mice) | EC50 (GLP-1R [1]; [3]) [nM] | Emax (GIP-R; Table 3) [%] | EC50 (GIP-R; [4]) [nM] | Emax (GIP-R; Table 3A) [%] | EC50 (GIP-R; [5]) [nM] | Emax (GLP-1R [2]; Table 3) [%] | EC50 (GLP-1R [2]; [6]) [nM] | Emax (GLP-1R [2]; Table 3A) [%] | EC50 (GLP-1R [2]; [7]) [nM] | EC50 (GLP-1R [1]) [nM] | EC50 (GIP-R; EC50 GIP-R/nM, Table 3) [nM] | EC50 (GIP-R; EC50 GIP-R/nM, Table 3A) [nM] | EC50 (GLP-1R [2]; EC50 GLP-1R/nM, Table 3) [nM] | EC50 (GLP-1R [2]; EC50 GLP-1R/nM, Table 3A) [nM]
1 | CCCCCCCCCCCCCCCC(=O)N[C@@H](CCC(=O)NCCCC[C@H](NC(=O)[C@H](CO)NC(=O)[C@@H]1CCCN1C(=O)[C@@H]1CCCN1C(=O)[C@@H]1CCCN1C(=O)[C@H](C)NC(=O)CNC(=O)[C@H](CO)NC(=O)[C@H](CO)NC(=O)[C@@H]1CCCN1C(=O)CNC(=O)CNC(=O)[C@H](C)NC(=O)[C@H](CC(C)C)NC(=O)[C@H](CC(C)C)NC(=O)[C@H](Cc1c[nH]c2ccccc12)NC(=O)[C@H](CC(N)=O)NC(=O)[C@@H](NC(=O)[C@H](Cc1ccccc1)NC(=O)[C@H](CCC(=O)O)NC(=O)C(C)(C)NC(=O)[C@H](C)NC(=O)[C@H](C)NC(=O)[C@H](CCC(N)=O)NC(=O)[C@H](CCCCN)NC(=O)[C@H](CC(=O)O)NC(=O)[C@H](CC(C)C)NC(=O)[C@H](Cc1ccc(O)cc1)NC(=O)[C@@H](NC(=O)[C@H](CO)NC(=O)[C@H](Cc1ccc(O)cc1)NC(=O)[C@H](CC(=O)O)NC(=O)[C@H](CO)NC(=O)[C@@H](NC(=O)[C@H](Cc1ccccc1)NC(=O)[C@@H](NC(=O)CNC(=O)[C@H](CCC(=O)O)NC(=O)C(C)(C)CC(=O)NCCN1CCCCC1=O)[C@@H](C)O)[C@@H](C)O)[C@@H](C)CC)C(C)C)C(N)=O)C(=O)O [Compound 18] | 2 (AUC score 2 = 26-50%) | < 10 | 80 | 0.1 to 1 | 80 | 0.1 to 1 | 101 | < 0.1 | 101 | < 0.1 | – | – | – | – | –
2 | CCCCCCCCCCCCCCCC(=O)N[C@@H](CCC(=O)NCCCC[C@H](NC(=O)[C@H](CO)NC(=O)[C@@H]1CCCN1C(=O)[C@@H]1CCCN1C(=O)[C@@H]1CCCN1C(=O)[C@H](C)NC(=O)CNC(=O)[C@H](CO)NC(=O)[C@H](CO)NC(=O)[C@@H]1CCCN1C(=O)CNC(=O)CNC(=O)[C@H](C)NC(=O)[C@H](CC(C)C)NC(=O)[C@H](CC(C)C)NC(=O)[C@H](Cc1c[nH]c2ccccc12)NC(=O)[C@H](CC(N)=O)NC(=O)[C@@H](NC(=O)[C@H](Cc1ccccc1)NC(=O)[C@H](CCC(=O)O)NC(=O)C(C)(C)NC(=O)[C@H](C)NC(=O)[C@H](C)NC(=O)[C@H](CCC(N)=O)NC(=O)[C@H](CCCCN)NC(=O)[C@H](CC(=O)O)NC(=O)[C@H](CC(C)C)NC(=O)[C@H](Cc1ccc(O)cc1)NC(=O)[C@@H](NC(=O)[C@H](CO)NC(=O)[C@H](Cc1ccc(O)cc1)NC(=O)[C@H](CC(=O)O)NC(=O)[C@H](CO)NC(=O)[C@@H](NC(=O)[C@H](Cc1ccccc1)NC(=O)[C@@H](NC(=O)CNC(=O)[C@H](CCC(=O)O)NC(=O)CSCC(=O)NCCN1CCOCC1=O)[C@@H](C)O)[C@@H](C)O)[C@@H](C)CC)C(C)C)C(N)=O)C(=O)O [Compound 32] | 2 (AUC score 2 = 26-50%) | > 1000 | 65 | 1 to 10 | 65 | 1 to 10 | 103 | < 0.1 | 103 | < 0.1 | – | – | – | – | –
3 | CCCCCCCCCCCCCCCC(=O)N[C@@H](CCC(=O)NCCCC[C@H](NC(=O)[C@H](CO)NC(=O)[C@@H]1CCCN1C(=O)[C@@H]1CCCN1C(=O)[C@@H]1CCCN1C(=O)[C@H](C)NC(=O)CNC(=O)[C@H](CO)NC(=O)[C@H](CO)NC(=O)[C@@H]1CCCN1C(=O)CNC(=O)CNC(=O)[C@H](C)NC(=O)[C@H](CC(C)C)NC(=O)[C@H](CC(C)C)NC(=O)[C@H](Cc1c[nH]c2ccccc12)NC(=O)[C@H](CC(N)=O)NC(=O)[C@@H](NC(=O)[C@H](Cc1ccccc1)NC(=O)[C@H](CCC(=O)O)NC(=O)C(C)(C)NC(=O)[C@H](C)NC(=O)[C@H](C)NC(=O)[C@H](CCC(N)=O)NC(=O)[C@H](CCCCN)NC(=O)[C@H](CC(=O)O)NC(=O)[C@H](CC(C)C)NC(=O)[C@H](Cc1ccc(O)cc1)NC(=O)[C@@H](NC(=O)[C@H](CO)NC(=O)[C@H](Cc1ccc(O)cc1)NC(=O)[C@H](CC(=O)O)NC(=O)[C@H](CO)NC(=O)[C@@H](NC(=O)[C@H](Cc1ccccc1)NC(=O)[C@@H](NC(=O)CNC(=O)[C@H](CCC(=O)O)NC(=O)CSCC(=O)NCCN1CCCCCC1=O)[C@@H](C)O)[C@@H](C)O)[C@@H](C)CC)C(C)C)C(N)=O)C(=O)O [Compound 41] | 4 (AUC score 4 = 76-100%) | – | 75 | – | 75 | – | 100 to 104 | – | 100 to 104 | – | > 1000 | 1 to 10 | 1 to 10 | 0.1 to 1 | 0.1 to 1
4 | CCCCCCCCCCCCCCCC(=O)N[C@@H](CCC(=O)NCCCC[C@H](NC(=O)[C@H](CO)NC(=O)[C@@H]1CCCN1C(=O)[C@@H]1CCCN1C(=O)[C@@H]1CCCN1C(=O)[C@H](C)NC(=O)CNC(=O)[C@H](CO)NC(=O)[C@H](CO)NC(=O)[C@@H]1CCCN1C(=O)CNC(=O)CNC(=O)[C@H](C)NC(=O)[C@H](CC(C)C)NC(=O)[C@H](CC(C)C)NC(=O)[C@H](Cc1c[nH]c2ccccc12)NC(=O)[C@H](CC(N)=O)NC(=O)[C@@H](NC(=O)[C@H](Cc1ccccc1)NC(=O)[C@H](CCC(=O)O)NC(=O)C(C)(C)NC(=O)[C@H](C)NC(=O)[C@H](C)NC(=O)[C@H](CCC(N)=O)NC(=O)[C@H](CCCCN)NC(=O)[C@H](CC(=O)O)NC(=O)[C@H](CC(C)C)NC(=O)[C@H](Cc1ccc(O)cc1)NC(=O)[C@@H](NC(=O)[C@H](CO)NC(=O)[C@H](Cc1ccc(O)cc1)NC(=O)[C@H](CC(=O)O)NC(=O)[C@H](CO)NC(=O)[C@@H](NC(=O)[C@H](Cc1ccccc1)NC(=O)[C@@H](NC(=O)CNC(=O)[C@H](CCC(=O)O)NC(=O)CSCC(=O)NCCN1CCCCC1=O)[C@@H](C)O)[C@@H](C)O)[C@@H](C)CC)C(C)C)C(N)=O)C(=O)O [Compound 65] | 2 (AUC score 2 = 26-50%) | > 1000 | 42 | 1 to 10 | 42 | 1 to 10 | 96 | 0.1 to 1 | 96 | 0.1 to 1 | – | – | – | – | –
5 | CCCCCCCCCCCCCCCC(=O)N[C@@H](CCC(=O)NCCCC[C@H](NC(=O)[C@H](CO)NC(=O)[C@@H]1CCCN1C(=O)[C@@H]1CCCN1C(=O)[C@@H]1CCCN1C(=O)[C@H](C)NC(=O)CNC(=O)[C@H](CO)NC(=O)[C@H](CO)NC(=O)[C@@H]1CCCN1C(=O)CNC(=O)CNC(=O)[C@H](C)NC(=O)[C@H](CC(C)C)NC(=O)[C@H](CC(C)C)NC(=O)[C@H](Cc1c[nH]c2ccccc12)NC(=O)[C@H](CC(N)=O)NC(=O)[C@@H](NC(=O)[C@H](Cc1ccccc1)NC(=O)[C@H](CCC(=O)O)NC(=O)C(C)(C)NC(=O)[C@H](C)NC(=O)[C@H](C)NC(=O)[C@H](CCC(N)=O)NC(=O)[C@H](CCCCN)NC(=O)[C@H](CC(=O)O)NC(=O)[C@H](CC(C)C)NC(=O)[C@H](Cc1ccc(O)cc1)NC(=O)[C@@H](NC(=O)[C@H](CO)NC(=O)[C@H](Cc1ccc(O)cc1)NC(=O)[C@H](CC(=O)O)NC(=O)[C@H](CO)NC(=O)[C@@H](NC(=O)[C@H](Cc1ccccc1)NC(=O)[C@@H](NC(=O)CNC(=O)[C@H](CCC(=O)O)NC(=O)CSCC(=O)NCCN1CC[C@H](O)C1=O)[C@@H](C)O)[C@@H](C)O)[C@@H](C)CC)C(C)C)C(N)=O)C(=O)O [Compound 66] | 2 (AUC score 2 = 26-50%) | > 1000 | 11 | 1 to 10 | 11 | 100 to 1000 | 113 | < 0.1 | 113 | < 0.1 | – | – | – | – | –
